Experiments:
[1] = system: microtubules (α-tubulin) / GFP-tagged NuSAP; assay: Immunofluorescence localization of GFP-tagged NuSAP in transfected COS-1 cells; conditions: for distribution of NuSAP in the nucleoli during interphase: COS-1 cells in interphase; for distribution of NuSAP and α-tubulin in mitotic cells: mitotic COS-1 cells, nocodazole 10 μM for 1 hour, taxol 5 μM for 1 hour
[2] = system: mouse osteoblastic MC3T3-E1 cells; assay: [3H]-thymidine incorporation, proliferation of MC3T3-E1 cells; type: cell-based; conditions: varying doses, 24 and 48 h, versus vehicle
Description: (a) The proliferation of MC3T3-E1 cells was analyzed after treatment for 24 and 48 h with varying doses of 1,25(OH)2D3 by monitoring [^3H]-thymidine incorporation. Data represent mean±SD of six replicates of a representative experiment. Values of vehicle (ethanol) treated cells were taken as 100%. (*P<0.001; versus vehicle, t test) All culture reagents, unless otherwise mentioned, were obtained from GIBCO BRL (Life Technologies, Grand Island, N.Y.). Murine osteoblast-like MC3T3-E1 cells (Sudo et al. (1983). J. Cell Biol. 96:191-198) were purchased from Riken Cell Bank (H. Kodama, Japan), and maintained in αMEM supplemented with 10% heat-inactivated FCS and penicillin-streptomycin (100 U/ml and […], respectively). Sub-confluent MC3T3-E1 cell cultures are defined to be in the proliferation state, while confluent and mineralising cells have entered the differentiation stage. COS-1 and NIH3T3 cells (American Type Culture Collection, Manassas, Va.) were cultured respectively in Dulbecco's modified eagle medium (hereinafter DME) and DME-F12, plus 10% heat-inactivated FCS. For NIH3T3 cells, the medium was supplemented with glutamax (2 mM) and glucose (4.5 g/l). Cultures were grown at 37° C. in a humidified atmosphere containing 5% CO2 in air. […] Significant effects were already observed after 24 hours and this inhibition became more pronounced with increasing time. […]

[3] = system: nusap gene expression; assay: Northern analysis of nusap gene expression in MC3T3-E1 cells; type: cell-based, mouse
Description: FIG. 2 represents a Northern blot analysis showing nusap gene expression in sub-confluent cultures of MC3T3-E1 cells after treatment with vehicle or 1,25(OH)2D3 (10^−8 M) for 24 hours. The size (kb) of the three transcripts is indicated.
(§1) Northern blot analysis of nusap expression in hydroxyurea treated (1 mM) MC3T3-E1 cells. Cells were harvested at the indicated time points (minutes) after treatment. The different cell cycle phases were assigned based on the RNA levels of histone H4, a S-phase marker. The blots were hybridized with the following cDNA probes: human histone H4, pFO002; and a 0.8 kb NuSAP BglII/AspI restriction fragment. The 18S cDNA probe was used as a control to assess equal loading.
(§2) Growth arrest of MC3T3-E1 cells by serum starvation was accomplished by changing complete medium (10% FCS) to medium containing 0.1% FCS in subconfluent cultures. The quiescent cells were released from growth arrest by adding complete medium (10% FCS), whereafter cells were harvested at the indicated time points.
(§3) Total cellular RNA was extracted from cell cultures using TriZol LS. Foetal mice and soft tissues from adult mice (C57BL/6; 8 wk old) were directly homogenized in TriZol (GIBCO BRL), while femurs and tibias were ground to a fine powder prior to homogenization, followed by total cellular RNA extraction. […]

[4] = system: histone H4 gene expression; assay: Northern analysis of histone H4 RNA levels in MC3T3-E1 cells; type: cell-based, mouse; conditions: 1 mM, within 45 minutes of treatment
Description: as §1, §2, §3

[5] = system: DNA synthesis (BrdUrd incorporation); assay: BrdUrd immunostaining in transfected COS-1 cells; type: cell-based; conditions: 20 μg/ml for several hours
Description: […] […] C is the merger of A and B. In some cells, BrdUrd incorporation is distinctly aggregated (E), and these sites overlap with NuSAP-GFP (D) and F (which is the merger of D and E).
Alternatively, cells were fixed and permeabilized in 0.4% glutaraldehyde/0.5% Triton X100/PBS for 15 minutes at room temperature. After incubation in 0.5 mg NaBH4/ml PBS (10 minutes), and blocking in 5% BSA/PBS (10 minutes), cells were incubated with primary antibodies for 1 h. Cells were washed and after incubation with 50% normal serum (Dako) (10 minutes), cells were incubated with secondary antibodies conjugated to Alexa-488 or -546 dye (Molecular Probes) (1 hour) and finally mounted using Dako mounting medium. Antibodies and normal serum were diluted in 0.5% Tween20/PBS. Analysis was done on a Nikon inverted microscope Diaphot 300 (Plan Apo 60/1.40 oil) connected to a Bio-Rad MRC1024 confocal microscope and images were captured by LaserSharp (version 3.2) and processed using Adobe Photoshop 5.5 (Adobe Systems Inc., San Jose Calif.). The images showing a-tubulin localization were taken using a Leitz DM microscope and were recorded using a cooled charge-coupled device camera (Photometrics Inc., Tucson, Ariz.) and IP-Lab software. […]

Question: What does the source list for `COC(=O)Nc1nc2ccc(C(=O)c3cccs3)cc2[nH]1` [nocodazole]?
Answer: distribution of NuSAP in the nucleoli during interphase [1]: Neither nocodazole nor taxol treatment affected; distribution of NuSAP and α-tubulin in mitotic cells [1]: NuSAP and α-tubulin redistributed throughout the cell

Question: For `C=C1/C(=C\C=C2/CCC[C@]3(C)[C@@H]([C@H](C)CCCC(C)(C)O)CC[C@@H]23)C[C@@H](O)C[C@@H]1O` [1α,25(OH)2D3, 1α,25-dihydroxyvitamin D3], which “proliferation measured by [3H]-thymidine incorporation” value [2] is on record?
Answer: Its value is “inhibited the proliferation of these cells”.

Question: What about the “nusap gene expression (Northern analysis)” value ([3]; sub-confluent MC3T3-E1 cells, 10^-8 M for 24 hours versus vehicle) of the same compound?
Answer: The value was “inhibition of nusap gene expression”.

Question: How did the “distribution of NuSAP in the nucleoli during interphase” value [1] turn out when `CC(=O)O[C@H]1C(=O)[C@@]2(C)[C@H]([C@H](OC(=O)c3ccccc3)[C@]3(O)C[C@H](OC(=O)[C@H](O)[C@@H](NC(=O)c4ccccc4)c4ccccc4)C(C)=C1C3(C)C)[C@]1(OC(C)=O)CO[C@@H]1C[C@@H]2O` [taxol] was run?
Answer: Its value is “Neither nocodazole nor taxol treatment affected”.

Question: What about the “distribution of NuSAP and α-tubulin in mitotic cells” value [1] of the same compound?
Answer: Its value is “resulted in NuSAPs translocation to these structures”.

Question: What does the source list for `NC(=O)NO` [hydroxyurea]?
Answer: histone H4 RNA levels [4]: undetectable; nusap gene expression (RNA level) ([3]; MC3T3-E1 cells, 1 mM, within 45 minutes of treatment): markedly down-regulated

Question: With `C[C@@]1(CO)[C@H](O)CC[C@@]2(C)[C@H]1CC[C@H]1C[C@@H]3C[C@@]12CC[C@]3(O)CO` [aphidicolin] as the compound, how does the “immunostaining for BrdUrd” value [5] read?
Answer: Its value is “loss of immunostaining for BrdUrd”.

Source: patent publication US20030157072A1, “Nusap, a novel gene encoding a tissue-specific nuclear protein, useful as a diagnostic tool and therapeutic agent” (priority 2003, published 2003)
